Reference: BindingDB's records for doi:10.1016/j.bioorg.2009.09.001 (University of Ljubljana, 2009)

Key:
Assay in all cases: Enzymatic Assay
Details in all cases: pH 8; 37 °C
[1] = biological target: UDP-N-acetylmuramate--L-alanine ligase (Escherichia coli (strain K12), UniProt P17952)
Procedure: (§1) Compounds were tested for their inhibition of the addition of L-Ala, D-Glu, L-Lys or D-Ala-D-Ala to nucleotide precursors catalyzed by MurC from Escherichia coli, MurD from E. coli, MurE from Staphylococcus aureus, and MurF from E coli. The detection of the orthophosphate generated during the reaction was based on the colorimetric Malachite green method.

[2] = biological target: T1, UDP-N-acetylmuramoyl-L-alanyl-D-glutamate--L-lysine ligase (Staphylococcus aureus (strain NCTC 8325 / PS 47), UniProt Q2FZP6)
T1 sequence (Q2FZP6 whole entry): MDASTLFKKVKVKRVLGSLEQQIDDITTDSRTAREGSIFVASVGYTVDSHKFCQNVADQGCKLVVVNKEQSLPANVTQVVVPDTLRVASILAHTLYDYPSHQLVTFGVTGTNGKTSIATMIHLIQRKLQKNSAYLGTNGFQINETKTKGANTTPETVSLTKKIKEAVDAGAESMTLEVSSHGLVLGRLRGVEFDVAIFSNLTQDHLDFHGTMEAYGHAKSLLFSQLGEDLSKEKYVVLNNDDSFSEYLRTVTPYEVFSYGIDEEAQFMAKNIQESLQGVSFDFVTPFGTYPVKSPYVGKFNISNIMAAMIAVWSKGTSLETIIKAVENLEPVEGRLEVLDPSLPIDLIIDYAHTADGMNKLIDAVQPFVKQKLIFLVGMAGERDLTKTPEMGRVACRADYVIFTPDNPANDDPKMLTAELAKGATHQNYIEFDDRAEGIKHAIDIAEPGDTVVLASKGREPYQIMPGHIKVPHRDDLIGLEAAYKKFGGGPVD
Procedure: as §1

[3] = biological target: T2, UDP-N-acetylmuramoyl-tripeptide--D-alanyl-D-alanine ligase (Escherichia coli (strain K12), UniProt P11880)
T2 sequence (P11880 whole entry): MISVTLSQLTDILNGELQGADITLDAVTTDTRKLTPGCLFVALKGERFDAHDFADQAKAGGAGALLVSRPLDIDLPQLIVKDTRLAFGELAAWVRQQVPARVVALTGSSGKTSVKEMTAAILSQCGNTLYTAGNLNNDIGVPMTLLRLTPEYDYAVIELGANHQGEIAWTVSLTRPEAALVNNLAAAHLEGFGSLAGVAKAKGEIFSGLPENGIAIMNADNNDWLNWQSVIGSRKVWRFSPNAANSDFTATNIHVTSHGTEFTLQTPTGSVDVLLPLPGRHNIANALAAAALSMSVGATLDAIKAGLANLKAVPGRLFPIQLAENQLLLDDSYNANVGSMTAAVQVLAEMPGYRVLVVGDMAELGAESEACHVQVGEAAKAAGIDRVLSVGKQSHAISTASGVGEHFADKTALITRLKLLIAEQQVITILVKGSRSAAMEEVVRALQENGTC
Procedure: as §1

Chain of UDP-N-acetylmuramate--L-alanine ligase (P17952 whole entry): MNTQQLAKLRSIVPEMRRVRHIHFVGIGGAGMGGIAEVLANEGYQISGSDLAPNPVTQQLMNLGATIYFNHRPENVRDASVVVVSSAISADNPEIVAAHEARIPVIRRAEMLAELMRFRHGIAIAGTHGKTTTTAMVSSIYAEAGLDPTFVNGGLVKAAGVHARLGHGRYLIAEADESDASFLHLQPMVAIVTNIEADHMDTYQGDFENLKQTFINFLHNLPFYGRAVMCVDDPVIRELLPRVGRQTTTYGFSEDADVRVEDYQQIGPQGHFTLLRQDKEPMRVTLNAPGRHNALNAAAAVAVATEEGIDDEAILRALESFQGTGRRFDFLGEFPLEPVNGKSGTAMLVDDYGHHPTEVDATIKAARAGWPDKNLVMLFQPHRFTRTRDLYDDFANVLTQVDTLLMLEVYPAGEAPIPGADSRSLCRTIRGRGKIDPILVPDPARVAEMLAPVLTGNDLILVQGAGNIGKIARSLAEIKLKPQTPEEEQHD

| SMILES | IC50 [1] [µM] | IC50 [2] [µM] | IC50 [3] [µM] |
| --- | --- | --- | --- |
| COc1ccc(S(=O)(=O)NCC(CN2CCOCC2)OP(=O)(O)O)cc1 (stereo not drawn) | 490 | 6 | 530 |
| O=P(O)(O)OC(CNS(=O)(=O)c1ccc(F)cc1)CN1CCOCC1 (stereo not drawn) [HEA derivative, 7b] | 790 | 120 | 270 |
| O=P(O)(O)OC(CNS(=O)(=O)c1cccc(C(F)(F)F)c1)CN1CCOCC1 (stereo not drawn) [HEA derivative, 7d] | 530 | 160 | 150 |
| Cc1ccc(S(=O)(=O)NCC(CN2CCOCC2)OP(=O)(O)O)cc1 (stereo not drawn) [HEA derivative, 7e] | 540 | 120 | 560 |
| CCc1ccc(S(=O)(=O)NCC(CN2CCOCC2)OP(=O)(O)O)cc1 (stereo not drawn) [HEA derivative, 7f] | 760 | 61 | 360 |
| O=P(O)(O)OC(CNS(=O)(=O)c1ccc(C(F)(F)F)cc1)CN1CCOCC1 (stereo not drawn) [MurC/D/E/F inhibitor (compound 68)] | 200 | 57 | 240 |
